# Reference: US8501755B2, “Tetrahydropyridothienopyrimidine compounds and methods of use thereof” (Bayer Intellectual Property GmbH, priority 2006, dated 2013)
# How the values were obtained:
# Assay type in all cases: cell-based
# [1] = system: A431 cells; assay: In vitro tumor cell proliferation assay (Cell Titer-Glo) in A431 cells; details: Homo sapiens, A-431, 72 h, A431 human epidermoid carcinoma overexpressing HER1; 72 hours exposure; read-out: IC50, activities in A431 cell lines
# Excerpt: (§1) The tumor cell proliferation assay used to test the compounds of the present invention involves a readout called Cell Titer-Glow® Luminescent Cell Viability Assay developed by Promega® (Cunningham, BA “A Growing Issue: Cell Proliferation Assays, Modern kits ease quantification of cell growth” The Scientist 2001, 15(13), 26, and Crouch, S P et al., “The use of ATP bioluminescence as a measure of cell proliferation and cytotoxicity” Journal of Immunological Methods 1993, 160, 81-88), that measures inhibition of cell proliferation. Generation of a luminescent signal corresponds to the amount of ATP present, which is directly proportional to the number of metabolically active (proliferating) cells. A431 cells [human epidermoid carcinoma, ATCC # HTB-20, overexpressing HER1 (EGFR, ErbB1)] and N87 [human gastric carcinoma, ATCC # CRL-1555, overexpressing HER2 (ErbB2) and HER1 (EGFR, ErbB1)] were plated at a density of 2.5×10^3 cells/well in 96 well black-clear bottom tissue culture plates in RPMI media with 10% Fetal Bovine Serum and incubated at 37° C. Twenty-four hours later, test compounds are added at a final concentration range from as high 100 μm to as low […] depend on the activities of the tested compounds in serial dilutions at a final DMSO concentration of 0.1%. Cells were incubated for 72 hours at 37° C. in complete growth media after addition of the test compound. After 72 hours of drug exposure, the plates were equilibrated to room temperature for approximately 30 min. Then, using a Promega Cell Titer Glo Luminescent® assay kit, lysis buffer containing 100 microliters of the enzyme luciferase and its substrate, luciferin mixture, was added to each well. The plates were mixed for 2 min on orbital shaker to ensure cell lysis and incubated for 10 min at room temperature to stabilize luminescence signal. The samples were read on VICTOR2 using Luminescence protocol, and analyzed with Analyze5 software to generate IC50 values.
# [2] = system: N87; assay: In vitro tumor cell proliferation assay (Cell Titer-Glo) in N87 cells; details: N87 human gastric carcinoma overexpressing HER2 and HER1; 72 hours exposure; read-out: IC50, activities in N87 cell lines
# Excerpt: as §1
# [3] = system: H1975 cells; assay: In vitro tumor cell proliferation assay (Cell Titer-Glo) in H1975 cells; details: NCI-H1975; H1975 human NSCLC expressing mutant HER1 (L858R,T790M); 72 hours exposure; read-out: IC50, activities in H 1975 cell lines
# Excerpt: The tumor cell proliferation assay used to test the compounds of the present invention involves a readout called Cell Titer-Glow® Luminescent Cell Viability Assay developed by Promega® (Cunningham, BA “A Growing Issue: Cell Proliferation Assays, Modern kits ease quantification of cell growth” The Scientist 2001, 15(13), 26, and Crouch, S P et al., “The use of ATP bioluminescence as a measure of cell proliferation and cytotoxicity” Journal of Immunological Methods 1993, 160, 81-88), that measures inhibition of cell proliferation. Generation of a luminescent signal corresponds to the amount of ATP present, which is directly proportional to the number of metabolically active (proliferating) cells.
# H1975 cells [human non small cell lung carcinoma, ATCC # CRL-5908, expressing mutant HER1 [(EGFR, ErbB1)(L858R,T790M] were plated at a density of 3×10^3 cells/well in 96 well black-clear bottom tissue culture plates in RPMI media with 10% Fetal Bovine Serum and incubated at 37° C. Twenty-four hours later, test compounds are added at a final concentration range from as high 10 uM to as low 64 pM depending on the activities of the tested compounds in serial dilutions at a final DMSO concentration of 0.1%. Cells were incubated for 72 hours at 37° C. in complete growth media after addition of the test compound. After 72 hours of drug exposure, the plates were equilibrated to room temperature for approximately 30 min. Then, using a Promega Cell Titer Glo Luminescent® assay kit, lysis buffer containing 100 microliters of the enzyme luciferase and its substrate, luciferin mixture, was added to each well. The plates were mixed for 2 min on orbital shaker to ensure cell lysis and incubated for 10 min at room temperature to stabilize luminescence signal. The samples were read on VICTOR2 using Luminescence protocol, and analyzed with Analyze5 software to generate IC50 values.
IC50 [1] [nM],IC50 [2] [nM],IC50 [3] [nM],SMILES
< 200,< 200,1000 to 10000,"CN(C)C/C=C/C(=O)N1CCc2c(sc3ncnc(Nc4ccc(OCc5cccc(F)c5)c(Cl)c4)c23)C1 [Example 11, N-{3-chloro-4-[(3-fluorobenzyl)oxy]phenyl}-7-[(2E)-4-(dimethylamino)but-2-enoyl]-5,6,7,8-tetrahydropyrido[4′,3′:4,5]thieno[2,3-d]pyrimidin-4-amine]"
< 200,< 200,200 to 1000,"O=C(/C=C/CN1CCCCC1)N1CCc2c(sc3ncnc(Nc4ccc(F)c(Cl)c4)c23)C1 [Example 12, N-(3-chloro-4-fluorophenyl)-7-[(2E)-4-piperidin-1-ylbut-2-enoyl]-5,6,7,8-tetrahydropyrido[4′,3′:4,5]thieno[2,3-d]pyrimidin-4-amine]"
< 200,< 200,1000 to 10000,"CCN(CC)C/C=C/C(=O)N1CCc2c(sc3ncnc(Nc4ccc(OCc5cccc(F)c5)c(Cl)c4)c23)C1 [Example 13, N-{3-chloro-4-[(3-fluorobenzyl)oxy]phenyl}-7-[(2E)-4-(diethylamino)but-2-enoyl]-5,6,7,8-tetrahydropyrido[4′,3′:4,5]thieno[2,3-d]pyrimidin-4-amine]"
< 200,< 200,1000 to 10000,"CN1CCN(C/C=C/C(=O)N2CCc3c(sc4ncnc(Nc5ccc(OCc6cccc(F)c6)c(Cl)c5)c34)C2)CC1 [Example 14, N-{3-chloro-4-[(3-fluorobenzyl)oxy]phenyl}-7-[(2E)-4-(4-methylpiperazin-1-yl)but-2-enoyl]-5,6,7,8-tetrahydropyrido[4′,3′:4,5]thieno[2,3-d]pyrimidin-4-amine]"
< 200,< 200,1000 to 10000,"C#Cc1cccc(Nc2ncnc3sc4c(c23)CCN(C(=O)/C=C/CN2CCOCC2)C4)c1 [Example 15, N-(3-ethynylphenyl)-7-[(2E)-4-morpholin-4-ylbut-2-enoyl]-5,6,7,8-tetrahydropyrido[4′,3′:4,5]thieno[2,3-d]pyrimidin-4-amine]"
< 200,< 200,200 to 1000,"C#Cc1cccc(Nc2ncnc3sc4c(c23)CCN(C(=O)/C=C/CN(CC)CC)C4)c1 [Example 16, 7-[(2E)-4-(diethylamino)but-2-enoyl]-N-(3-ethynylphenyl)-5,6,7,8-tetrahydropyrido[4′,3′:4,5]thieno[2,3-d]pyrimidin-4-amine]"
< 200,< 200,200 to 1000,"C#Cc1cccc(Nc2ncnc3sc4c(c23)CCN(C(=O)/C=C/CN(C)C)C4)c1 [Example 17, 7-[(2E)-4-(dimethylamino)but-2-enoyl]-N-(3-ethynylphenyl)-5,6,7,8-tetrahydropyrido[4′,3′:4,5]thieno[2,3-d]pyrimidin-4-amine]"
< 200,< 200,1000 to 10000,"O=C(/C=C/CN1CCCCC1)N1CCc2c(sc3ncnc(Nc4ccc(OCc5cccc(F)c5)c(Cl)c4)c23)C1 [Example 19, N-{3-chloro-4-[(3-fluorobenzyl)oxy]phenyl}-7-[(2E)-4-piperidin-1-ylbut-2-enoyl]-5,6,7,8-tetrahydropyrido[4′,3′: 4,5]thieno[2,3-d]pyrimidin-4-amine]"
< 200,< 200,200 to 1000,"C#Cc1cccc(Nc2ncnc3sc4c(c23)CCN(C(=O)/C=C/CN2CCCCC2)C4)c1 [Example 20, N-(3-ethynylphenyl)-7-[(2E)-4-piperidin-1-ylbut-2-enoyl]-5,6,7,8-tetrahydropyrido [4′,3′:4,5]thieno[2,3-d]pyrimidin-4-amine]"
< 200,< 200,< 200,"O=C(/C=C/CN1CCCC1)N1CCc2c(sc3ncnc(Nc4ccc(F)c(Cl)c4)c23)C1 [Example 21, N-(3-chloro-4-fluorophenyl)-7-[(2E)-4-pyrrolidin-1-ylbut-2-enoyl]-5,6,7,8-tetrahydropyrido [4′,3′:4,5]thieno[2,3-d]pyrimidin-4-amine]"
< 200,< 200,200 to 1000,"C=CC(=O)N1CCc2c(sc3ncnc(Nc4ccc(F)c(Cl)c4)c23)C1 [Example 22, 7-acryloyl-N-(3-chloro-4-fluorophenyl)-5,6,7,8-tetrahydropyrido [4′,3′:4,5]thieno[2,3-d]pyrimidin-4-amine]"
1000 to 10000,200 to 5000,1000 to 10000,"C/C=C/C(=O)N1CCc2c(sc3ncnc(Nc4ccc(F)c(Cl)c4)c23)C1 [Example 23, 7-[(2E)-but-2-enoyl]-N-(3-chloro-4-fluorophenyl)-5,6,7,8-tetrahydropyrido [4′,3′:4,5]thieno[2,3-d]pyrimidin-4-amine]"
200 to 1000,< 200,< 200,"O=C(/C=C/CN1CCCC1)N1CCc2c(sc3ncnc(Nc4ccc(OCc5ccccn5)c(Cl)c4)c23)C1 [Example 24, N-[3-chloro-4-(pyridin-2-ylmelhoxy)phenyl]-7-[(2E)-4-pyrrolidin-1-ylbut-2-enoyl]-5,6,7,8-tetrahydropyrido [4′,3′:4,5]thieno[2,3-d]pyrimidin-4-amine]"
200 to 1000,< 200,200 to 1000,"O=C(/C=C/CN1CCCC1)N1CCc2c(sc3ncnc(Nc4ccc(OCc5cccc(F)c5)c(Cl)c4)c23)C1 [Example 25, N-{3-chloro-4-[(3-fluorobenzyl)oxy]phenyl}-7-[(2E)-4-pyrrolidin-1-ylbut-2-enoyl]-5,6,7,8-tetrahydropyrido [4′,3′:4,5]thieno[2,3-d]pyrimidin-4-amine]"
< 200,< 200,< 200,"C#Cc1cccc(Nc2ncnc3sc4c(c23)CCN(C(=O)/C=C/CN2CCCC2)C4)c1 [Example 26, N-(3-ethynylphenyl)-7-[(2E)-4-pyrrolidin-1-ylbut-2-enoyl]-5,6,7,8-tetrahydropyrido [4′,3′:4,5]thieno[2,3-d]pyrimidin-4-amine]"
1000 to 10000,< 200,200 to 1000,"C#Cc1cccc(Nc2ncnc3sc4c(c23)CCN(C(=O)C=C)C4)c1 [Example 27, 7-acryloyl-N-(3-ethynylphenyl)-5,6,7,8-tetrahydropyrido [4′,3′:4,5]thieno[2,3-d]pyrimidin-4-amine]"
1000 to 10000,< 200,< 200,C=CC(=O)N1CCc2c(sc3ncnc(Nc4ccc(OCc5ccccn5)c(Cl)c4)c23)C1 [Example 28]
1000 to 10000,200 to 5000,1000 to 10000,"CN1CCC=C(C(=O)N2CCc3c(sc4ncnc(Nc5ccc(F)c(Cl)c5)c34)C2)C1 [Example 29, N-(3-chloro-4-fluorophenyl)-7-[(1-methyl-1,2,5,6-tetrahydropyridin-3-yl)carbonyl]5,6,7,8-tetrahydropyrido [4′,3′:4,5]thieno[2,3-d]pyrimidin-4-amine]"
1000 to 10000,200 to 5000,1000 to 10000,"CN1CCC=C(C(=O)N2CCc3c(sc4ncnc(Nc5ccc(OCc6ccccn6)c(Cl)c5)c34)C2)C1 [Example 30, N-[3-chloro-4-(pyridin-2-ylmethoxy)phenyl]-7-[(1-methyl-1,2,5,6-tetrahydropyridin-3-yl)carbonyl]-5,6,7,8-tetrahydropyrido [4′,3′:4,5]thieno[2,3-d]pyrimidin-4-amine]"
